Data taken from PubChem BioAssay AID449762 (Southern Research Specialized Biocontainment Screening …, 2010).
Inconclusive results are not listed.

system: M. tuberculosis H37Rv growth inhibition, 7H9 media; experiment: M. tuberculosis growth inhibition, HTS (AID 449762); details: measured here: IC90 growth inhibition;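 also: bacterial growth assessed after seven days of incubation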

Compound	IC90
Cc1ccc(-c2noc(=O)n2CC(=O)c2ccc(Cl)cc2)cc1	> 100 µM
C#CCOCCOCCOCCNc1nc(N2CCN(C(=O)C(Cc3ccc(O)cc3)n3cc(C(N)CC(C)C)nn3)CC2)nc(N2CCN(C(=O)C(Cc3cc4ccccc4[nH]3)n3cc(C(N)Cc4ccc(O)cc4)nn3)CC2)n1 (stereo not given)	6.93 µM
Cc1ccc(OC(=O)CCN2C(=O)c3ccccc3C2=O)cc1C	> 100 µM
CCCC(=O)Nc1ccc(C(=O)/C=C/c2ccc(SC)cc2)cc1	37.1 µM
C=C(C)CSc1cc(C)c(C#N)c2nc3ccccc3n12	48.1 µM
Cc1cc(/C=N\NC(=O)c2cccs2)c(C)n1-c1ccc2ncccc2c1	31.7 µM
CCOc1cc(C=O)cc(N=Nc2cccc([N+](=O)[O-])c2)c1O	11.6 µM
CCCc1ccc(C2=Nn3c(nnc3C(C)C)SC2)cc1	29.7 µM
COC(=O)c1ccc(CSc2nc(C(F)(F)F)c3c(c2C#N)CCC3)o1	> 100 µM
Cc1cc(C)c(CSc2ncc(-c3ccc([N+](=O)[O-])cc3)[nH]2)c(C)c1	62.8 µM
CSc1nsc(/C=C/Nc2ccc(O)cc2C)c1C#N	43 µM
Cc1ccc(-c2cccc(NC(=O)C3C4C=CC(C4)C3C(=O)O)c2)o1 (stereo not given)	> 100 µM
CCOc1ccc(N2CC(=O)Nc3ccccc3NCC2=O)cc1	78.2 µM
CCOC(=O)c1sc2nc(C)nc(SC(C)C(=O)N(C)c3ccccc3)c2c1C (stereo not given)	46.5 µM
N#Cc1cccc2c1-c1ccccc1/C2=N/NC(N)=O	> 100 µM
CC(NC(=O)c1ccccc1Br)C1CC2CCC1C2 (stereo not given)	> 100 µM
Cc1nc2ccc(NC(=O)N(C(C)C)C(C)C)cc2s1	> 100 µM
CCOc1cc(NC(=O)CCl)c(OCC)cc1NC(C)=O	5.99 µM
COc1ccc(COC(=O)CCNC(=O)c2ccc(Cl)cc2)cc1	> 100 µM
Nc1ccc(S(=O)(=O)Nc2cnc3ccccc3n2)cc1	52 µM
Cc1cc(NC(=O)c2sccc2C)n(-c2nc3ccccc3[nH]2)n1	> 100 µM
C(=C\c1nccc2c1[nH]c1ccccc12)/c1ccccc1	48.2 µM

Compound	IC90
N#CC(C(=O)NCc1ccco1)c1nc2ccccc2nc1N1CCOCC1 (stereo not given)	45.2 µM
Cc1ccc(/C(N)=N/OC(=O)N2c3ccccc3Sc3ccccc32)cc1	> 100 µM
O=C(O)c1ccc(N2C(=O)/C(=C/c3ccc(-c4ccc([N+](=O)[O-])cc4)o3)C=C2c2ccccc2)cc1	40.2 µM
O=c1[nH][nH]c(-c2ccccc2O)c1C(C[N+](=O)[O-])c1cccc(Cl)c1 (stereo not given)	> 100 µM
O=c1[nH]c(=O)n(Cc2ccccc2)c2nc(-c3ccc(Oc4ccc(F)cc4)c([N+](=O)[O-])c3)n(CCO)c12	> 100 µM
Cn1c2ccccc2c2cc(C(=O)NNC(=O)CCl)sc21	3.91 µM
O=S1(=O)CCC(N=Cc2ccc(-c3ccc(Cl)cc3)o2)C1 (stereo not given)	> 100 µM
CN(C)CCCN(C(=O)c1cc(-c2cccs2)nc2ccccc12)c1nc2ccc(F)cc2s1	55.5 µM
O=C(Nc1nnc(-c2ccccc2Cl)o1)c1nc2ccccc2s1	6.78 µM
O=c1cc(CCl)nc(Cc2c(Cl)cccc2Cl)[nH]1	68.7 µM
O=C1N[C@@H](Cc2ccccc2)C(=O)N2[C@H]3Nc4ccccc4[C@@]3([C@]34C[C@H]5C(=O)N[C@@H](Cc6ccccc6)C(=O)N5[C@H]3Nc3ccccc34)C[C@@H]12	> 100 µM
Cc1ccnc(N2CCC(C(=O)Nc3cccc(C(F)(F)F)c3)CC2)n1	> 100 µM
Cc1ccc(NC(=O)COc2ccccc2CNC(C)(C)CC(C)(C)C)cc1	29.8 µM
COc1cccc(-c2cnc(NCc3cc(Cl)ccc3O)n2C)c1	22.9 µM
CC(C)c1ccc(N2C(=O)NC(=O)/C(=C\C=C\c3ccco3)C2=O)cc1	35.7 µM
COc1ccc(NC(=O)c2oc3ccc(S(=O)(=O)N4CCOCC4)cc3c2C)cc1	7.38 µM
CCN(Cc1ccccc1)c1ccc(/C=N/N=C(N)N)cc1	30.1 µM
COc1ccc(C2Oc3ccccc3C3=C2C(c2cccs2)n2ncnc2N3)cc1 (stereo not given)	> 100 µM
COc1ccc(-c2oc(NC(=O)CCl)c(C#N)c2-c2ccc(OC)cc2)cc1	54.7 µM
Cc1c(Cl)ccc2c1NC(=O)[C@]21N[C@@H](Cc2ccccc2)[C@H]2C(=O)N(c3ccc(F)cc3)C(=O)[C@H]21	26.1 µM
Cc1cc(C)c2c(CN3CCN(Cc4ccccc4)CC3)cc(=O)oc2c1C	54.6 µM
COc1cc(C)ccc1S(=O)(=O)N1CCN(C23CC4CC(CC(C4)C2)C3)CC1	44 µM

Compound	IC90
CC(C)c1nnc(NC(=O)CCC(=O)N2CCN(c3ccc(Cl)cc3)CC2)s1	29.5 µM
Cc1nn(-c2ccccc2)c(N)c1C(c1ccc(C(C)C)cc1)c1c(C)nn(-c2ccccc2)c1N	27.1 µM
COc1ccccc1-c1cc(C(=O)NC2CCN(C)CC2)c2ccc(Cl)c(C)c2n1	95 µM
Cc1cc(C)c2oc(-c3ccc(C)c(NC(=S)NC(=O)/C=C/c4ccco4)c3)nc2c1	> 100 µM
COC(=O)c1cc(Sc2cccc(Cl)c2Cl)ccn1	30.7 µM
CC(=O)O[C@H]1C[C@@]2(C)[C@@H](C[C@@H](O)[C@H]3[C@@]4(C)CC[C@@H](O)[C@@H](C)[C@@H]4CC[C@@]32C)/C1=C(\CCC=C(C)C)C(=O)O	4.42 µM
Cc1cccc(CSc2nc3c(c(-c4cccs4)c2C#N)CN(C)CC3)c1	> 100 µM
CCCCOC(=O)CCN1C(=O)/C(=C2\SC(=S)N(CCC(=O)OCCCC)C2=O)SC1=S	6.96 µM
O=C(NNC(=O)C12CC3CC(CC(C3)C1)C2)c1ccccn1	23.5 µM
c1ccc(Cn2c3ccccc3c3nnc(SCCN4CCCCC4)nc32)cc1	34.5 µM
Oc1ccc(/C=N/NC(=S)N2CCOCC2)cc1	6.19 µM
Cc1cc(-c2n[nH]c(=S)n2/N=C/C(Br)=C/c2ccccc2)n[nH]1	5.63 µM
CCc1ccc(-c2cc(C)no2)cc1S(=O)(=O)NCCCN1CCN(c2ccccc2)CC1	44.7 µM
Clc1ccc(CSc2ncn[nH]2)cc1	> 100 µM
NN(Cc1ccccc1)C(=S)Nc1ccc(Cl)c(Cl)c1	58.1 µM
CCCCCCCNC(=O)C1(CC2CC(c3cccc(Br)c3)=NO2)CCNCC1 (stereo not given)	53.1 µM
CCN(CC)c1ccc2nc3ccccc3[n+](CC)c2c1	5.66 µM
Cc1ccc(NC(=O)c2ccc(CSc3nnc(C)s3)cc2)c(C)c1	> 25 µM
Cc1ccc(-c2ccc(/C=N/c3ncn[nH]3)o2)cc1Cl	> 100 µM
COc1ccc(/C=N/Nc2nncn2N)cc1Br	16.3 µM
O=[N+]([O-])c1ccc(O)c(-c2cc(C(F)(F)F)nc(-c3ccccc3)n2)c1	23.3 µM
Nc1ccc(C(=O)OCCCc2nc3cc4ccccc4cc3[nH]2)cc1	51.7 µM

Compound	IC90
O=C(O)/C=C/C(=O)Nc1ccc(-c2ccccc2)cc1	> 100 µM
COc1ccc2nc(N=NC3=C(O)CC(C)(C)CC3=O)sc2c1	13.7 µM
O=C(CN1CCN(c2ccccc2O)CC1)Nc1ccccc1C(=O)NCCc1ccccc1	57.9 µM
CC(=O)c1ccc(N2CCC(c3cc(-c4ccc(Cl)cc4Cl)n[nH]3)CC2)c([N+](=O)[O-])c1	26.1 µM
COc1ccccc1C1CC(c2ccc(Cl)cc2)Nc2ncnn21 (stereo not given)	17.7 µM
CCOC(=O)CN(C#N)c1nc(N(C)C)nc(N(C)C)n1	12.5 µM
Cc1ccc2cc(C)c(N3CCN(c4ccccn4)CC3)nc2c1	46.3 µM
CC1CN(C(=S)SCC(=O)c2ccc([N+](=O)[O-])cc2)CC(C)O1 (stereo not given)	> 100 µM
Cc1[nH]n(-c2ccccc2)c(=O)c1C(C[N+](=O)[O-])c1ccccc1Cl (stereo not given)	14.3 µM
Oc1ccc(-[n+]2c(-c3ccccc3)cc(-c3ccccc3)cc2-c2ccccc2)cc1	18.8 µM
Cc1ccc2nc(=O)c(NNc3ccccc3)cnc2c1	> 100 µM
COC(=O)[C@H](CC(C)C)NC(=O)c1cc2c(cn1)[nH]c1ccccc12	29.2 µM
CC(CC(=O)Nc1ccc(Cl)c([N+](=O)[O-])c1)c1ccccc1 (stereo not given)	40.7 µM
CC[N+](C)(CC)CCCCOc1ccc2c(c1)C(=O)c1cc(OCCCC[N+](C)(CC)CC)ccc1-2	1.52 µM
CCc1ccc(/C=C2/C(=O)N(C)C(=S)N2CC(=O)OC)s1	5.75 µM
COC(=O)C(C)Oc1ccc(Cc2ncc(C(F)(F)F)cc2Cl)cc1 (stereo not given)	5.77 µM
CCN(CC)c1nc(NN)nc(Nc2ccc(C)c(Cl)c2)n1	6.27 µM
CCc1noc(C)c1C(=O)Nc1nc(-c2ccc(F)cc2)c(C)s1	36.9 µM
Cc1sc2ncnc(Oc3ccc(-n4ccnc4)cc3)c2c1C	55.5 µM
